Experimental data reported in ChEMBL document CHEMBL2331210, “New 2-benzylsulfanyl-nicotinic acid based 1,3,4-oxadiazoles: their synthesis and biological evaluation” (2013).
≈ marks a conversion by molar mass, not a printed value.

How the values were obtained:
UO-31 = assay: Antitumor activity against human UO31 cells assessed as cell growth at 0.1 uM; format: functional; conditions: read-out: Activity
TK-10 = assay: Antitumor activity against human TK10 cells assessed as cell growth at 0.1 uM; format: functional; conditions: read-out: Activity
SN12C = assay: Antitumor activity against human SN12C cells assessed as cell growth at 0.1 uM; format: functional; conditions: read-out: Activity
RXF 393 = assay: Antitumor activity against human RXF393 cells assessed as cell growth at 0.1 uM; format: functional; conditions: read-out: Activity
ACHN = assay: Antitumor activity against human ACHN cells assessed as cell growth at 0.1 uM; format: functional; conditions: read-out: Activity
CAKI-1 = assay: Antitumor activity against human CAKI-1 cells assessed as cell growth at 0.1 uM; format: functional; conditions: read-out: Activity
A498 = assay: Antitumor activity against human A498 cells assessed as cell growth at 0.1 uM; format: functional; conditions: read-out: Activity
SK-OV-3 = assay: Antitumor activity against human SKOV3 cells assessed as cell growth at 0.1 uM; format: functional; conditions: read-out: Activity
NCI/ADR-RES = assay: Antitumor activity against human NCI/ADR-RES cells assessed as cell growth at 0.1 uM; format: functional; conditions: read-out: Activity
OVCAR-8 = assay: Antitumor activity against human OVCAR8 cells assessed as cell growth at 0.1 uM; format: functional; conditions: read-out: Activity
OVCAR-5 = assay: Antitumor activity against human OVCAR5 cells assessed as cell growth at 0.1 uM; format: functional; conditions: read-out: Activity
OVCAR-3 = assay: Antitumor activity against human OVCAR3 cells assessed as cell growth at 0.1 uM; format: functional; conditions: read-out: Activity
OVCAR-4 = assay: Antitumor activity against human OVCAR4 cells assessed as cell growth at 0.1 uM; format: functional; conditions: read-out: Activity
IGROV-1 = assay: Antitumor activity against human IGROV1 cells assessed as cell growth at 0.1 uM; format: functional; conditions: read-out: Activity
UACC-62 = assay: Antitumor activity against human UACC62 cells assessed as cell growth at 0.1 uM; format: functional; conditions: read-out: Activity
UACC-257 = assay: Antitumor activity against human UACC257 cells assessed as cell growth at 0.1 uM; format: functional; conditions: read-out: Activity
SK-MEL-5 = assay: Antitumor activity against human SK-MEL-5 cells assessed as cell growth at 0.1 uM; format: functional; conditions: read-out: Activity
SK-MEL-28 = assay: Antitumor activity against human SK-MEL-28 cells assessed as cell growth at 0.1 uM; format: functional; conditions: read-out: Activity
MDA-MB-435 = assay: Antitumor activity against human MDA-MB-435 cells assessed as cell growth at 0.1 uM; format: functional; conditions: read-out: Activity
M14 = assay: Antitumor activity against human M14 cells assessed as cell growth at 0.1 uM; format: functional; conditions: read-out: Activity
Malme-3M = assay: Antitumor activity against human MALME-3M cells assessed as cell growth at 0.1 uM; format: functional; conditions: read-out: Activity
LOX IMVI = assay: Antitumor activity against human LOXIMVI cells assessed as cell growth at 0.1 uM; format: functional; conditions: read-out: Activity
U-251 = assay: Antitumor activity against human U251 cells assessed as cell growth at 0.1 uM; format: functional; conditions: read-out: Activity
SNB-75 = assay: Antitumor activity against human SNB75 cells assessed as cell growth at 0.1 uM; format: functional; conditions: read-out: Activity
SF-539 = assay: Antitumor activity against human SF539 cells assessed as cell growth at 0.1 uM; format: functional; conditions: read-out: Activity
SNB-19 = assay: Antitumor activity against human SNB19 cells assessed as cell growth at 0.1 uM; format: functional; conditions: read-out: Activity
SF-295 = assay: Antitumor activity against human SF295 cells assessed as cell growth at 0.1 uM; format: functional; conditions: read-out: Activity
SF-268 = assay: Antitumor activity against human SF268 cells assessed as cell growth at 0.1 uM; format: functional; conditions: read-out: Activity
SW-620 = assay: Antitumor activity against human SW620 cells assessed as cell growth at 0.1 uM; format: functional; conditions: read-out: Activity
HCT-15 = assay: Antitumor activity against human HCT15 cells assessed as cell growth at 0.1 uM; format: functional; conditions: read-out: Activity
HT-29 = assay: Antitumor activity against human HT-29 cells assessed as cell growth at 0.1 uM; format: functional; conditions: read-out: Activity
HCT-116 = assay: Antitumor activity against human HCT116 cells assessed as cell growth at 0.1 uM; format: functional; conditions: read-out: Activity
[1] = Antitumor activity against human HCC2998 cells assessed as cell growth at 0.1 uM; format: functional; conditions: HCC 2998, read-out: Activity
NCI-H460 = assay: Antitumor activity against human NCI-H460 cells assessed as cell growth at 0.1 uM; format: functional; conditions: read-out: Activity
NCI-H522 = assay: Antitumor activity against human NCI-H522 cells assessed as cell growth at 0.1 uM; format: functional; conditions: read-out: Activity
NCI-H23 = assay: Antitumor activity against human NCI-H23 cells assessed as cell growth at 0.1 uM; format: functional; conditions: read-out: Activity
NCI-H226 = assay: Antitumor activity against human NCI-H226 cells assessed as cell growth at 0.1 uM; format: functional; conditions: read-out: Activity
HOP-62 = assay: Antitumor activity against human HOP62 cells assessed as cell growth at 0.1 uM; format: functional; conditions: read-out: Activity
HOP-92 = assay: Antitumor activity against human HOP92 cells assessed as cell growth at 0.1 uM; format: functional; conditions: read-out: Activity
[2] = Antitumor activity against human EKVX cells assessed as cell growth at 0.1 uM; format: functional; conditions: read-out: Activity
A549 = assay: Antitumor activity against human A549/ATCC cells assessed as cell growth at 0.1 uM; format: functional; conditions: read-out: Activity
SR = assay: Antitumor activity against human SR cells assessed as cell growth at 0.1 uM; format: functional; conditions: read-out: Activity
MOLT-4 = assay: Antitumor activity against human MOLT4 cells assessed as cell growth at 0.1 uM; format: functional; conditions: read-out: Activity
RPMI-8226 = assay: Antitumor activity against human RPMI8226 cells assessed as cell growth at 0.1 uM; format: functional; conditions: read-out: Activity
K562 = assay: Antitumor activity against human K562 cells assessed as cell growth at 0.1 uM; format: functional; conditions: read-out: Activity
HL-60 = assay: Antitumor activity against human HL60(TB) cells assessed as cell growth at 0.1 uM; format: functional; conditions: read-out: Activity
CCRF-CEM = assay: Antitumor activity against human CCRF-CEM cells assessed as cell growth at 0.1 uM; format: functional; conditions: read-out: Activity
[3] = system: Mycobacterium tuberculosis; assay: Antitubercular activity against Mycobacterium tuberculosis H37Rv assessed as growth inhibition after 12 to 28 days by L.J. agar MIC method; format: functional
Aspergillus clavatus = assay: Antimicrobial activity against Aspergillus clavatus MTCC 1323 assessed as growth inhibition measured after overnight incubation by broth dilution method; format: functional
Aspergillus niger = assay: Antimicrobial activity against Aspergillus niger MTCC 282 assessed as growth inhibition measured after overnight incubation by broth dilution method; format: functional
Candida albicans = assay: Antimicrobial activity against Candida albicans MTCC 227 assessed as growth inhibition measured after overnight incubation by broth dilution method; format: functional
Pseudomonas aeruginosa = assay: Antimicrobial activity against Pseudomonas aeruginosa MTCC 2488 assessed as growth inhibition measured after overnight incubation by broth dilution method; format: functional
Escherichia coli = assay: Antimicrobial activity against Escherichia coli MTCC 443 assessed as growth inhibition measured after overnight incubation by broth dilution method; format: functional
Streptococcus pyogenes = assay: Antimicrobial activity against Streptococcus pyogenes MTCC 442 assessed as growth inhibition measured after overnight incubation by broth dilution method; format: functional
Staphylococcus aureus = assay: Antimicrobial activity against Staphylococcus aureus MTCC 96 assessed as growth inhibition measured after overnight incubation by broth dilution method; format: functional
MDA-MB-468 = assay: Antitumor activity against human MDA-MB-468 cells assessed as cell growth at 0.1 uM; format: functional; conditions: read-out: Activity
T47D = assay: Antitumor activity against human T47D cells assessed as cell growth at 0.1 uM; format: functional; conditions: read-out: Activity
[4] = Antitumor activity against human Hs 578T cells assessed as cell growth at 0.1 uM; format: functional; conditions: read-out: Activity
BT-549 = assay: Antitumor activity against human BT549 cells assessed as cell growth at 0.1 uM; format: functional; conditions: read-out: Activity
MDA-MB-231 = assay: Antitumor activity against human MDA-MB-231/ATCC cells assessed as cell growth at 0.1 uM; format: functional; conditions: read-out: Activity
DU-145 = assay: Antitumor activity against human DU145 cells assessed as cell growth at 0.1 uM; format: functional; conditions: read-out: Activity
MCF7 = assay: Antitumor activity against human MCF7 cells assessed as cell growth at 0.1 uM; format: functional; conditions: read-out: Activity
PC-3 = assay: Antitumor activity against human PC3 cells assessed as cell growth at 0.1 uM; format: functional; conditions: read-out: Activity
SK-MEL-2 = assay: cells; conditions: Homo sapiens, SK-MEL-2, read-out: Activity
Description: Antitumor activity against human SK-MEL-2 cells assessed as cell growth at 0.1 uM

Cc1ccc2sc(-c3ccc(NC(=O)CSc4nnc(-c5cccnc5SCc5ccccc5)o4)cc3)nc2c1
growth at 0.1 µM (UO-31): 59.3% | growth at 0.1 µM (TK-10): 118% | growth at 0.1 µM (SN12C): 102% | growth at 0.1 µM (RXF 393): 114% | growth at 0.1 µM (ACHN): 90.8% | growth at 0.1 µM (CAKI-1): 87.8% | growth at 0.1 µM (A498): 105% | growth at 0.1 µM (SK-OV-3): 105% | growth at 0.1 µM (NCI/ADR-RES): 99.5% | growth at 0.1 µM (OVCAR-8): 94.3% | growth at 0.1 µM (OVCAR-5): 107% | growth at 0.1 µM (OVCAR-3): 100% | growth at 0.1 µM (OVCAR-4): 98.8% | growth at 0.1 µM (IGROV-1): 99.7% | growth at 0.1 µM (UACC-62): 104% | growth at 0.1 µM (UACC-257): 113% | growth at 0.1 µM (SK-MEL-5): 89.9% | growth at 0.1 µM (SK-MEL-28): 114% | growth at 0.1 µM (MDA-MB-435): 107% | growth at 0.1 µM (M14): 97.4% | growth at 0.1 µM (Malme-3M): 99.3% | growth at 0.1 µM (LOX IMVI): 93.6% | growth at 0.1 µM (U-251): 106% | growth at 0.1 µM (SNB-75): 95.6% | growth at 0.1 µM (SF-539): 92.9% | growth at 0.1 µM (SNB-19): 104% | growth at 0.1 µM (SF-295): 107% | growth at 0.1 µM (SF-268): 91.6% | growth at 0.1 µM (SW-620): 104% | growth at 0.1 µM (HCT-15): 111% | growth at 0.1 µM (HT-29): 100% | growth at 0.1 µM (HCT-116): 95.4% | growth at 0.1 µM [1]: 106% | growth at 0.1 µM (NCI-H460): 101% | growth at 0.1 µM (NCI-H522): 87.9% | growth at 0.1 µM (NCI-H23): 96.6% | growth at 0.1 µM (NCI-H226): 80.8% | growth at 0.1 µM (HOP-62): 96.8% | growth at 0.1 µM (HOP-92): 93.4% | growth at 0.1 µM [2]: 89.9% | growth at 0.1 µM (A549): 104% | growth at 0.1 µM (SR): 82.6% | growth at 0.1 µM (MOLT-4): 92.2% | growth at 0.1 µM (RPMI-8226): 92.2% | growth at 0.1 µM (K562): 101% | growth at 0.1 µM (HL-60): 97.3% | growth at 0.1 µM (CCRF-CEM): 93.1% | growth inhibition (GI) [3]: 99% | MIC ([3]; Mycobacterium tuberculosis, H37Rv): 62.5 µg/mL (≈ 107 µM) | MIC (Aspergillus clavatus): 500 µg/mL (≈ 859 µM) | MIC (Aspergillus niger): 1000 µg/mL (≈ 1720 µM) | MIC (Candida albicans): 250 µg/mL (≈ 430 µM) | MIC (Pseudomonas aeruginosa): 62.5 µg/mL (≈ 107 µM) | MIC (Escherichia coli): 100 µg/mL (≈ 172 µM) | MIC (Streptococcus pyogenes): 25 µg/mL (≈ 43 µM) | MIC (Staphylococcus aureus): 100 µg/mL (≈ 172 µM) | growth at 0.1 µM (MDA-MB-468): 92.2% | growth at 0.1 µM (T47D): 87.8% | growth at 0.1 µM [4]: 92.3% | growth at 0.1 µM (BT-549): 91.6% | growth at 0.1 µM (MDA-MB-231): 71.4% | growth at 0.1 µM (DU-145): 87.5% | growth at 0.1 µM (MCF7): 81.2% | growth at 0.1 µM (PC-3): 91.8% | growth at 0.1 µM (SK-MEL-2): 89.8%
